The results in this text go back to patent publication US8609650B2, “Bridged bicyclic aryl and bridged bicyclic heteroaryl substituted triazoles useful as Axl inhibitors” (Rigel Pharmaceuticals, Inc., priority 2006, dated 2013).

pIC50: −log10 of the molar value.

In the experiment the target is T1, Axl (Homo sapiens, UniProt P30530).
T1 construct: endogenous in cells; host or cells: HeLa cells
T1 sequence (P30530 26-894): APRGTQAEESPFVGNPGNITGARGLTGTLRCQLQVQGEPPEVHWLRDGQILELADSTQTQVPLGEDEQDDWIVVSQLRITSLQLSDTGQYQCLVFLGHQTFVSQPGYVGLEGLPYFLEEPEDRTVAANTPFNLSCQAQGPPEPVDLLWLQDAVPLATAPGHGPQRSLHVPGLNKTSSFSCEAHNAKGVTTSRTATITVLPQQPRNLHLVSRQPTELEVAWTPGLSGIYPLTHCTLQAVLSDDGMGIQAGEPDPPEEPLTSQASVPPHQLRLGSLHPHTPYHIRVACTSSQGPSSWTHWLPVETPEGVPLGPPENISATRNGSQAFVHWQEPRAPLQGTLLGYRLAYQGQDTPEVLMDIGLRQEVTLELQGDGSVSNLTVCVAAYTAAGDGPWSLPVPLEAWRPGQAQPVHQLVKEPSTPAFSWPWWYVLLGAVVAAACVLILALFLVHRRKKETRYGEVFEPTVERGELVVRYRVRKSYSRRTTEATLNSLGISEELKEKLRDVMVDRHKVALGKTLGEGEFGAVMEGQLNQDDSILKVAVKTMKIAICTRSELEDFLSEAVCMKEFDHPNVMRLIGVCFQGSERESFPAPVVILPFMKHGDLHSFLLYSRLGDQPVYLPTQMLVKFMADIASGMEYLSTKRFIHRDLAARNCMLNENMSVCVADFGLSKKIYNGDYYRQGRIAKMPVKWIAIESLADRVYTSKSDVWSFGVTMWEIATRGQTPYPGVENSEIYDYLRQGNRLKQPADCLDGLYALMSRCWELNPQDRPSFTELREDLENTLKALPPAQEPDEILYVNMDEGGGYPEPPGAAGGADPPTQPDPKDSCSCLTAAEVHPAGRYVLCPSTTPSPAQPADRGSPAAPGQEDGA
The experiment is described as follows: Phospho-Akt In-Cell Western Assay (ability to inhibit Axl activity). The class given is cell-based. To be noted: Hela cells, stimulated by Axl-antibody cross-linking, phospho-Akt chemiluminescence normalized to relative cell number. How it is done:
The compounds of the invention were tested in the following assay for their ability to inhibit Axl activity.
Phospho-Akt In-Cell Western Assay
• Cell culture plate: 96 well assay plate (Corning 3610), white, clear bottom, tissue-culture treated. • Cells: Hela cells. • Starvation medium: For Axl stimulation: 0.5% FCS (fetal calf serum) in DMEM, plus Axl/Fc (extracellular domain of AXL fused to immunoglobulin Fc region) (R&D, 154-AL) 500 ng/mL. • For EGF (epidermal growth factor) stimulation: 0.5% FCS in DMEM (Dulbecco's modified Eagles medium). • Poly-L-Lysine 0.01% solution (the working solution): 10 μg/ml, dilute In PBS (phosphate buffered saline). • Axl antibody cross-linking: • 1st: Mouse anti-Axl (R&D, MAB154). • 2nd: Biotin-SP-conjugated AffiniPure goat anti-mouse IgG (H+L) (Jackson ImmunoResearch #115-065-003). • Fixing buffer: 4% formaldehyde in PBS. • Wash buffer: 0.1% TritonX-100 in PBS. • Quenching buffer: 3% H2O2, 0.1% Azide in wash buffer, Azide and hydrogen peroxide (H2O2) are added fresh. • Blocking buffer: 5% BSA in TBST (tris buffered saline plus 0.1% Tween 20). • Primary antibody: Rabbit anti-human Phospho-Akt antibody (Cell Signaling 9271): 1×250 diluted in blocking buffer. • Secondary antibody: HRP (horse radish peroxidase)-conjugated Goat anti-Rabbit secondary, stock solution: Jackson ImmunoResearch (Goat anti-Rabbit HRP, #111-035-144) 1:1 diluted in glycerol, store at −20° C. The working solution: 1×2000 dilution of stock in blocking buffer. • Chemiluminescent working solution (Pierce, 37030): SuperSignal ELISA (enzyme linked immunosorbant assay) Pico Chemiluminescent substrate. • Crystal Violet solution: Stock: 2.5% Crystal violet in methanol, filtered and kept at ambient temperature. The working solution: dilute the stock 1:20 with PBS immediately before use. • 10% SDS: working solution: 5% SDS (sodium dodecylsulfate), diluted in PBS Methods: Day 1:
A 96 well TC (tissue culture treated) plate was coated with 10 μg/mL poly-L-Lysine at 37° C. for 30 min, washed twice with PBS, and air-dried for 5 minutes before cells were added. Hela cells were seeded at 10,000 cells/well and the cells were starved in 100 μL starvation medium containing Axl/Fc for 24 hrs.
The cells were pre-treated with test compounds by adding 100 μL of 2× test compound to the starvation medium on the cells. The cells were incubated at 37° C. for 1 hr before stimulation.
The cells were stimulated by Axl-antibody cross-linking as follows: A 5×1st/2nd Axl antibody mixture was made (37.5 μg/mL 1st/100 μg/mL 2nd) in starvation medium and nutated at 4° C. with thorough mixing for 1-2 hours for clustering. The resulting mix was warmed to 37° C. 50 μL of 5× Axl 1st/2nd of antibody cluster was added to the cells and the cells were incubated at 37° C. for 5 min.
After 5 minutes stimulation, the plate was flicked to remove medium and the plate was tapped onto paper towels. Formaldehyde (4.0% in PBS, 100 μL) was added to fix the cells and the cells were incubated at ambient temperature for 20 min without shaking.
The cells were washed with a plate washer buffer to remove the formaldehyde solution. The plate was flicked to removed excess wash buffer and tapped onto paper towels. Quenching buffer (100 μL) was added to each well and the cells were incubated at ambient temperature for 20 minutes without shaking.
The cells were washed with a plate washer buffer to remove the quenching buffer. Blocking buffer (100 μL) was added and the cells were incubated at ambient temperature for at least an hour with gentle shaking.
The cells were washed with a plate washer buffer and diluted primary antibody (50 μL) was added to each well (blocking buffer was added to the negative control wells instead). The plates were incubated overnight at 4° C. with gentle shaking.
The wash buffer was removed, diluted secondary antibody (100 μL) was added, and the cells were incubated at ambient temperature for 1 hour with gentle shaking. […]

With `Nc1nc(Nc2ccc(N3CCC(N4CCCC4)CC3)c(F)c2)nn1-c1cc(-c2cccnc2)c2c(n1)C1CCN2CC1` [Compound 63, 1-(1,4-ethano-8-pyridin-3-yl-1,2,3,4-tetrahydro-1,5-naphthyridin-6-yl)-N^3-(3-fluoro-4-(4-(pyrrolidin-1-yl)piperidin-1-yl)phenyl)-1H-1,2,4-triazole-3,5-diamine], the pIC50 – broadly, the negative decadic logarithm of the IC50, by convention in mol/L – was above 6.00.

`Nc1nc(Nc2ccc(N3CCC(N4CCCC4)CC3)c(F)c2)nn1-c1cc(-c2cccs2)c2c(n1)C1CCC2C1` (stereo not shown) [Compound 53, 1-(5,8-methano-4-thiophen-2-yl-5,6,7,8-tetrahydroquinoline-2-yl)-N^3-(3-fluoro-4-(4-(pyrrolidin-1-yl)piperidin-1-yl)phenyl)-1H-1,2,4-triazole-3,5-diamine] gave a pIC50 above 6.00.

In turn, `Nc1nc(Nc2ccc(N3CCN(C4CCCCC4)CC3)c(F)c2)nn1-c1cc(-c2ccccc2)c2c(n1)C1CCN2CC1` [Compound 37, 1-(1,4-ethano-8-phenyl-1,2,3,4-tetrahydro-1,5-naphthyridin-6-yl)-N^3-(3-fluoro-4-(4-cyclohexylpiperazin-1-yl)phenyl)-1H-1,2,4-triazole-3,5-diamine] showed a pIC50 above 6.00. The result for `Nc1nc(Nc2ccc(N3CCC(N4CCCC4)CC3)c(F)c2)nn1-c1cc(-c2ccsc2)c2c(n1)C1CCN2CC1` [Compound 64, 1-(1,4-ethano-8-thiophen-3-yl-1,2,3,4-tetrahydro-1,5-naphthyridin-6-yl)-N^3-(3-fluoro-4-(4-(pyrrolidin-1-yl)piperidin-1-yl)phenyl)-1H-1,2,4-triazole-3,5-diamine] reads above 6.00.

In turn, `Nc1nc(Nc2ccc(OCCN3CCCC3)cc2)nn1-c1ncnc2c1C1CCC2C1` (stereo not shown) [Compound 19, 1-(5,8-methano-5,6,7,8-tetrahydroquinazolin-4-yl)-N^3-(4-(2-(pyrrolidin-1-yl)ethoxy)phenyl)-1H-1,2,4-triazole-3,5-diamine] gave a pIC50 above 6.00.

`Nc1nc(Nc2ccc(N3CCN(C4CCCCC4)CC3)c(F)c2)nn1-c1cc(-c2ccccc2)c2c(n1)C1CCC2C1` (stereo not shown) [Compound 44, 1-(5,8-methano-4-phenyl-5,6,7,8-tetrahydroquinoline-2-yl)-N^3-(3-fluoro-4-(4-cyclohexylpiperazin-1-yl)phenyl)-1H-1,2,4-triazole-3,5-diamine]: the pIC50 was 5.00 to 6.00. Regarding `CN1CCN(c2ccc(Nc3nc(N)n(-c4cc(-c5ccccc5)c5c(n4)C4CCN5CC4)n3)cn2)CC1` [Compound 28, 1-(1,4-ethano-8-phenyl-1,2,3,4-tetrahydro-1,5-naphthyridin-6-yl)-N^3-(2-(4-methylpiperazin-1-yl)pyridine-5-yl)-1H-1,2,4-triazole-3,5-diamine], the negative-log IC50 (pIC50) was above 6.00. The result for `CCN(CC)C1CCN(c2ccc(Nc3nc(N)n(-c4ncnc5c4C4CCC5C4)n3)cc2F)CC1` (stereo not shown) [Compound 17, 1-(5,8-methano-5,6,7,8-tetrahydroquinazolin-4-yl)-N^3-(3-fluoro-4-(4-diethylaminopiperidin-1-yl)phenyl)-1H-1,2,4-triazole-3,5-diamine] reads above 6.00; that for `CN1CCN(c2ccc(Nc3nc(N)n(-c4cc(-c5ccccc5)c5c(n4)C4CCN5CC4)n3)cc2)CC1` [Compound 35, 1-(1,4-ethano-8-phenyl-1,2,3,4-tetrahydro-1,5-naphthyridin-6-yl)-N^3-(4-(4-methylpiperazin-1-yl)phenyl)-1H-1,2,4-triazole-3,5-diamine], above 6.00; that for `CN1CCN(c2ccc(Nc3nc(N)n(-c4nnc(-c5ccccc5)c5c4C4CCC5C4)n3)cc2)CC1` (stereo not shown) [Compound 42, 1-(5,8-methano-1-phenyl-5,6,7,8-tetrahydrophthalazine-4-yl)-N^3-(4-(4-methylpiperazin-1-yl)phenyl)-1H-1,2,4-triazole-3,5-diamine], above 6.00. For `Nc1nc(Nc2ccc(N3CCC(N4CCC[C@H]4C(=O)O)CC3)c(F)c2)nn1-c1cc(-c2ccccc2)c2c(n1)C1CCN2CC1` [Compound 61, 1-(1,4-ethano-8-phenyl-1,2,3,4-tetrahydro-1,5-naphthyridin-6-yl)-N^3-(3-fluoro-4-(4-((2S)-2-carboxypyrrolidin-1-yl)piperidin-1-yl)phenyl)-1H-1,2,4-triazole-3,5-diamine], the pIC50 is above 6.00.

As for `CN1CCC(c2ccc(Nc3nc(N)n(-c4ncc5c(n4)C4CCC5C4)n3)cc2)CC1` (stereo not shown) [Compound 12, N^3-(4-(1-methylpiperidin-4-yl)phenyl)-1-(5,8-methano-5,6,7,8-tetrahydroquinazolin-2-yl)-1H-1,2,4-triazole-3,5-diamine], the pIC50 was below 4.70. As for “1-(5,8-dimethylmethano-8-methyl-5,6,7-trihydroquinazolin-2-yl)-N^3-(3-fluoro-4-(4-(pyrrolidin-1-yl)piperidin-1-yl)phenyl)-1H-1,2,4-triazole-3,5-diamine [Compound 21]”, the figure is above 6.00; as for `Cc1cc(Nc2nc(N)n(-c3cc(-c4cccs4)c4c(n3)C3CCC4C3)n2)cnc1N1CCN(CC2CC2)CC1` (stereo not shown) [Compound 52, 1-(5,8-methano-4-thiophen-2-yl-5,6,7,8-tetrahydroquinoline-2-yl)-N^3-(3-methyl-2-(4-cyclopropylmethylpiperazin-1-yl)pyridine-5-yl)-1H-1,2,4-triazole-3,5-diamine], above 6.00. As for `Nc1nc(Nc2ccc(N3CCN(C4CCCCCCC4)CC3)cc2)nn1-c1ncc2c(n1)C1CCC2C1` (stereo not shown) [Compound 9, N^3-(4-(4-cyclooctylpiperazin-1-yl)phenyl)-1-(5,8-methano-5,6,7,8-tetrahydroquinazolin-2-yl)-1H-1,2,4-triazole-3,5-diamine], the figure is above 6.00; as for `Nc1nc(Nc2ccc(N3CCC(N4CCCC4)CC3)c(F)c2)nn1-c1cc(-c2ccccc2)c2c(n1)C1CCC2C1` (stereo not shown) [Compound 43, 1-(5,8-methano-4-phenyl-5,6,7,8-tetrahydroquinoline-2-yl)-N^3-(3-fluoro-4-(4-(pyrrolidin-1-yl)piperidin-1-yl)phenyl)-1H-1,2,4-triazole-3,5-diamine], above 6.00.
